Consider eight compounds from US11453703B2, “Heterotandem bicyclic peptide complexes” (BicycleTX Limited, priority 2018, dated 2022).

Like-named read-outs stand apart in the source and are kept apart here. Starred links: 1 amine or outer side, 2 acyl side, 3 side chain; linkers in the order of their positions; H or OH if unused. Positions of bridges follow the written chain, without caps; N, C: chain ends. Non-standard residues stand in square brackets, D forms with d. Chains are numbered I, II in the order given. X1 = O=C(CCc1cn(CCOCCOCCOCCOCCOCCOCCOCCOCCOCCOCCOCCOCCC(=O)[*:2])nn1)NCCC(=O)[*:1]; TATA = O=C(CC[*:1])N1CN(C(=O)CC[*:2])CN(C(=O)CC[*:3])C1; 1Nal = N[C@@H](Cc1cccc2ccccc12)C(=O)O; Hyp = O=C(O)[C@@H]1C[C@@H](O)CN1; hArg = N=C(N)NCCCC[C@H](N)C(=O)O; tBuAla = CC(C)(C)C[C@H](N)C(=O)O; Nle = CCCC[C@H](N)C(=O)O; Sar = CNCC(=O)O

The data set addresses CD137 (Homo sapiens, UniProt Q07011). As to the kind of experiment: CD137 reporter assay, co-culture with Nectin-4 tumour cells.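 Also: jurkat reporter cells co-cultured with tumour cells and test article for 6 h, luminescence signal relative to Jurkat plus tumour cells lacking test article.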 In kind it is cell-based. Further details: host or cells: Jurkat reporter cells. (In general: A reporter such as luciferase makes a cellular process visible.)
[1] abbreviates: tumour target Nectin4, co-culture with H1376, 6 h.

Chain of CD137 (Q07011 24-255): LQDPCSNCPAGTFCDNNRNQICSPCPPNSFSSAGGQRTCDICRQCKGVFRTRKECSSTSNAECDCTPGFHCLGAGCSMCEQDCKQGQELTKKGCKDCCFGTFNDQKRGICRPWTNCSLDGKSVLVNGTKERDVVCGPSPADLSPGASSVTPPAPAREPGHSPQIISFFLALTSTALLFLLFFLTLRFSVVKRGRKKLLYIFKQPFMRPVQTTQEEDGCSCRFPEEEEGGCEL

`CCCC[C@@H]1NC(=O)[C@H](Cc2ccc(O)cc2)NC(=O)[C@@H]2CCCN2C(=O)[C@H](CC(=O)O)NC(=O)[C@H](C)NC(=O)[C@H](Cc2ccccc2)NC(=O)[C@@H]2CSCCC(=O)N3CN(CN(C3)C(=O)CCSC[C@@H](C(=O)N[C@@H](CNC(=O)Cn3cc(CCC(=O)NCCC(=O)N(C)CC(=O)N(C)CC(=O)N(C)CC(=O)N(C)CC(=O)N(C)CC(=O)N(C)CC(=O)N(C)CC(=O)N(C)CC(=O)N(C)CC(=O)N(C)CC(=O)N[C@H]4CSCCC(=O)N5CN6CN(C5)C(=O)CCSC[C@H](NC(=O)[C@@H](CC(=O)O)NC(=O)[C@H](Cc5cccc7ccccc57)NC(=O)[C@@H]5CCCN5C4=O)C(=O)N[C@@H](CCSC)C(=O)N[C@@H](CCCCNC(=N)N)C(=O)N[C@@H](CC(=O)O)C(=O)N[C@@H](Cc4c[nH]c5ccccc45)C(=O)N[C@@H](CO)C(=O)N[C@@H]([C@@H](C)O)C(=O)N4CCC[C@H]4C(=O)N4C[C@H](O)C[C@H]4C(=O)N[C@@H](Cc4c[nH]c5ccccc45)C(=O)N[C@H](C(N)=O)CSCCC6=O)nn3)C(N)=O)NC1=O)C(=O)CCSC[C@H](NC(C)=O)C(=O)N[C@@H](CC(C)(C)C)C(=O)N1CCC[C@H]1C(=O)N[C@@H](CCC(=O)O)C(=O)N[C@H](C)C(=O)N1CCC[C@H]1C(=O)N[C@@H](Cc1ccc(O)cc1)C(=O)N2` [BCY10578]: the “Fold Induction over Background” value under setting [1] was 58 fold.

For `CCCC[C@@H]1NC(=O)[C@H](Cc2ccc(O)cc2)NC(=O)[C@@H]2CCCN2C(=O)[C@H](CC(=O)O)NC(=O)[C@H](C)NC(=O)[C@H](Cc2ccccc2)NC(=O)[C@@H]2CSCCC(=O)N3CN(CN(C3)C(=O)CCSC[C@@H](C(=O)N[C@@H](CNC(=O)CCc3cn(CCOCCOCCOCCOCCOCCOCCOCCOCCOCCOCCOCCOCCC(=O)NCCC(=O)N(C)CC(=O)N(C)CC(=O)N(C)CC(=O)N(C)CC(=O)N(C)CC(=O)N(C)CC(=O)N(C)CC(=O)N(C)CC(=O)N(C)CC(=O)N(C)CC(=O)NCCCC[C@H]4NC(=O)[C@H](Cc5cccc6ccccc56)NC(=O)[C@@H]5CCCN5C(=O)[C@@H](NC(C)=O)CSCCC(=O)N5CN6CN(C5)C(=O)CCSC[C@H](NC4=O)C(=O)N[C@@H](CCSC)C(=O)N[C@@H](CCCCNC(=N)N)C(=O)N[C@@H](CC(=O)O)C(=O)N[C@@H](Cc4c[nH]c5ccccc45)C(=O)N[C@@H](CO)C(=O)N[C@@H]([C@@H](C)O)C(=O)N4CCC[C@H]4C(=O)N4C[C@H](O)C[C@H]4C(=O)N[C@@H](Cc4c[nH]c5ccccc45)C(=O)N[C@H](C(N)=O)CSCCC6=O)nn3)C(N)=O)NC1=O)C(=O)CCSC[C@H](NC(C)=O)C(=O)N[C@@H](CC(C)(C)C)C(=O)N1CCC[C@H]1C(=O)N[C@@H](CCC(=O)O)C(=O)N[C@H](C)C(=O)N1CCC[C@H]1C(=O)N[C@@H](Cc1ccc(O)cc1)C(=O)N2` [BCY10917], the “Fold Induction over Background” value under setting [1] came out at 54 fold.

Regarding `CCCC[C@@H]1NC(=O)[C@H](Cc2ccc(O)cc2)NC(=O)[C@@H]2CCCN2C(=O)[C@H](CC(=O)O)NC(=O)[C@H](C)NC(=O)[C@H](Cc2ccccc2)NC(=O)[C@@H]2CSCCC(=O)N3CN(CN(C3)C(=O)CCSC[C@@H](C(=O)N[C@@H](CNC(=O)CCc3cn(CCOCCOCCOCCOCCOCCC(=O)NCCC(=O)N(C)CC(=O)N(C)CC(=O)N(C)CC(=O)N(C)CC(=O)N(C)CC(=O)N(C)CC(=O)N(C)CC(=O)N(C)CC(=O)N(C)CC(=O)N(C)CC(=O)NCCCC[C@H]4NC(=O)[C@H](Cc5cccc6ccccc56)NC(=O)[C@@H]5CCCN5C(=O)[C@@H](NC(C)=O)CSCCC(=O)N5CN6CN(C5)C(=O)CCSC[C@H](NC4=O)C(=O)N[C@@H](CCSC)C(=O)N[C@@H](CCCCNC(=N)N)C(=O)N[C@@H](CC(=O)O)C(=O)N[C@@H](Cc4c[nH]c5ccccc45)C(=O)N[C@@H](CO)C(=O)N[C@@H]([C@@H](C)O)C(=O)N4CCC[C@H]4C(=O)N4C[C@H](O)C[C@H]4C(=O)N[C@@H](Cc4c[nH]c5ccccc45)C(=O)N[C@H](C(N)=O)CSCCC6=O)nn3)C(N)=O)NC1=O)C(=O)CCSC[C@H](NC(C)=O)C(=O)N[C@@H](CC(C)(C)C)C(=O)N1CCC[C@H]1C(=O)N[C@@H](CCC(=O)O)C(=O)N[C@H](C)C(=O)N1CCC[C@H]1C(=O)N[C@@H](Cc1ccc(O)cc1)C(=O)N2` [BCY11020], the “Fold Induction over Background” value under setting [1] is reported as 47 fold.

As to `CCCC[C@@H]1NC(=O)[C@H](Cc2ccc(O)cc2)NC(=O)[C@@H]2CCCN2C(=O)[C@H](CC(=O)O)NC(=O)[C@H](C)NC(=O)[C@H](Cc2ccccc2)NC(=O)[C@@H]2CSCCC(=O)N3CN(CN(C3)C(=O)CCSC[C@@H](C(=O)N[C@@H](C)C(N)=O)NC1=O)C(=O)CCSC[C@H](NC(C)=O)C(=O)N[C@@H](CC(C)(C)C)C(=O)N1CCC[C@H]1C(=O)N[C@@H](CCCCNC(=O)CCc1cn(CC(=O)N[C@H]3CSCCC(=O)N4CN5CN(C4)C(=O)CCSC[C@H](NC(=O)[C@@H](CC(=O)O)NC(=O)[C@H](Cc4cccc6ccccc46)NC(=O)[C@@H]4CCCN4C3=O)C(=O)N[C@@H](CCSC)C(=O)N[C@@H](CCCCNC(=N)N)C(=O)N[C@@H](CC(=O)O)C(=O)N[C@@H](Cc3c[nH]c4ccccc34)C(=O)N[C@@H](CO)C(=O)N[C@@H]([C@@H](C)O)C(=O)N3CCC[C@H]3C(=O)N3C[C@H](O)C[C@H]3C(=O)N[C@@H](Cc3c[nH]c4ccccc34)C(=O)N[C@H](C(N)=O)CSCCC5=O)nn1)C(=O)N[C@H](C)C(=O)N1CCC[C@H]1C(=O)N[C@@H](Cc1ccc(O)cc1)C(=O)N2` [BCY11373], the “Fold Induction over Background” value is 74 fold. Further, the EC50 (in general, the midpoint of the concentration-response curve) (tumour target Nectin4, co-culture with H1376, 6 h, read-out: EC50) was found to be 0.16 nM.

The compound `CCCC[C@@H]1NC(=O)[C@H](Cc2ccc(O)cc2)NC(=O)[C@@H]2CCCN2C(=O)[C@H](CC(=O)O)NC(=O)[C@H](C)NC(=O)[C@H](Cc2ccccc2)NC(=O)[C@@H]2CSCCC(=O)N3CN(CN(C3)C(=O)CCSC[C@@H](C(=O)N[C@@H](C)C(N)=O)NC1=O)C(=O)CCSC[C@H](NC(C)=O)C(=O)N[C@@H](CC(C)(C)C)C(=O)N1CCC[C@H]1C(=O)N[C@@H](CCC(=O)O)C(=O)N[C@H](CCCCNC(=O)CCc1cn(CC(=O)N[C@H]3CSCCC(=O)N4CN5CN(C4)C(=O)CCSC[C@H](NC(=O)[C@@H](CC(=O)O)NC(=O)[C@H](Cc4cccc6ccccc46)NC(=O)[C@@H]4CCCN4C3=O)C(=O)N[C@@H](CCSC)C(=O)N[C@@H](CCCCNC(=N)N)C(=O)N[C@@H](CC(=O)O)C(=O)N[C@@H](Cc3c[nH]c4ccccc34)C(=O)N[C@@H](CO)C(=O)N[C@@H]([C@@H](C)O)C(=O)N3CCC[C@H]3C(=O)N3C[C@H](O)C[C@H]3C(=O)N[C@@H](Cc3c[nH]c4ccccc34)C(=O)N[C@H](C(N)=O)CSCCC5=O)nn1)C(=O)N1CCC[C@H]1C(=O)N[C@@H](Cc1ccc(O)cc1)C(=O)N2` [BCY11374] returned an EC50 of 0.091 nM. For the same compound, under setting [1], the “Fold Induction over Background” value worked out at 72 fold.

`CCCC[C@@H]1NC(=O)[C@H](Cc2ccc(O)cc2)NC(=O)[C@@H]2CCCN2C(=O)[C@H](CC(=O)O)NC(=O)[C@H](C)NC(=O)[C@H](Cc2ccccc2)NC(=O)[C@@H]2CSCCC(=O)N3CN(CN(C3)C(=O)CCSC[C@@H](C(=O)N[C@@H](CNC(=O)CCc3cn(CC(=O)N[C@H]4CSCCC(=O)N5CN6CN(C5)C(=O)CCSC[C@H](NC(=O)[C@@H](CC(=O)O)NC(=O)[C@H](Cc5cccc7ccccc57)NC(=O)[C@@H]5CCCN5C4=O)C(=O)N[C@@H](CCSC)C(=O)N[C@@H](CCCCNC(=N)N)C(=O)N[C@@H](CC(=O)O)C(=O)N[C@@H](Cc4c[nH]c5ccccc45)C(=O)N[C@@H](CO)C(=O)N[C@@H]([C@@H](C)O)C(=O)N4CCC[C@H]4C(=O)N4C[C@H](O)C[C@H]4C(=O)N[C@@H](Cc4c[nH]c5ccccc45)C(=O)N[C@H](C(N)=O)CSCCC6=O)nn3)C(N)=O)NC1=O)C(=O)CCSC[C@H](NC(C)=O)C(=O)N[C@@H](CC(C)(C)C)C(=O)N1CCC[C@H]1C(=O)N[C@@H](CCC(=O)O)C(=O)N[C@H](C)C(=O)N1CCC[C@H]1C(=O)N[C@@H](Cc1ccc(O)cc1)C(=O)N2` [BCY11375] showed an EC50 of 0.23 nM. For the same compound, the “Fold Induction over Background” value under setting [1] stood at 72 fold.

In the case of “I: [Sar][Sar][Sar][Sar][Sar][Sar][Sar][Sar][Sar][Sar]CP[1Nal][dD]CM[hArg]DWSTP[Hyp]WC-NH2 / II: Ac-C[tBuAla]PE[dK]PYCFADPY[Nle]CA-NH2 (linker I:11-I:15-I:25, II:1-II:8-II:15 via TATA; linker I:N-II:5 via X1) [BCY10569]”, the EC50 was found to be 1.2 nM. Further, the “Fold Induction over Background” value under setting [1] was determined as 52 fold.

With “I: [Sar][Sar][Sar][Sar][Sar][Sar][Sar][Sar][Sar][Sar]CP[1Nal][dD]CM[hArg]DWSTP[Hyp]WC-NH2 / II: Ac-C[tBuAla]PK[dA]PYCFADPY[Nle]CA-NH2 (linker I:11-I:15-I:25, II:1-II:8-II:15 via TATA; linker I:N-II:4 via X1) [BCY10567]”, the “Fold Induction over Background” value under setting [1] amounted to 45 fold.
